Assay results reported in publication PMC4466525, “Design, Synthesis and Structure-Activity Relationship Studies of Novel Survivin Inhibitors with Potent Anti-Proliferative Properties” (PLoS ONE, 2015).

Assays:
[1] = target: T1, survivin (Homo sapiens, UniProt O15392); experiment: Western blotting of survivin level, A375 cells; assay type: cell-based
T1 construct: endogenous in cells; host or cells: A375 cells
Procedure: (§1) Lysates of A375 cells treated by the compound solution for 24 h were used to determine the change of IAP protein levels through western blotting. Primary rabbit antibodies against survivin, XIAP, cIAP1, cIAP2, livin and GAPDH were purchased from Cell Signaling Technology, Inc. (Danvers, MA) and used according to manufacture instructions as reported previously. Protein lane intensities were quantified by ImageJ software (US National Institutes of Health, Bethesda, MD).

[2] = system: M14; experiment: Cell viability (MTS) anti-proliferative assay, M14; assay type: cell-based; settings: M14 human melanoma, 48 h treatment, n = 4, read-out: IC50 values ± SEM, M14
Procedure: (§2) The anti-proliferative effect of UC-112 and its analogs were tested in human melanoma (A375, M14 and M14/LCC6MDR1) and human prostate cancer (PC-3) cell lines. All the cell lines were purchased from ATCC (American Type Culture Collection, Manassas, VA). The cancer cells were cultured using the supplemented cell culture medium as described before at 37°C in a humidified atmosphere containing 5% CO2. 5000 cells in logarithm growing phase were seeded overnight into each well of a 96-well plate. Then the cells were continuously incubated with sequential diluted compound solution (10 nM to 100 μM, 100 μl per well) in cell culture medium.

[3] = system: A375; experiment: Cell viability (MTS) anti-proliferative assay, A375; assay type: cell-based; settings: A-375, A375 human melanoma, 48 h treatment, n = 4, read-out: IC50 values ± SEM, A375
Procedure: as §2

[4] = system: other IAPs (XIAP, cIAP1, cIAP2, livin); experiment: Western blotting of other IAP levels; assay type: cell-based, human; settings: 24 h, A375 and PC-3 cells
Procedure: as §1

[5] = system: M14/LCC6MDR1; experiment: Cell viability (MTS) anti-proliferative assay, multidrug-resistant M14/LCC6MDR1; assay type: cell-based, human
Procedure: as §2

[6] = target: T1, survivin; experiment: Western blotting of survivin level, PC-3 cells; assay type: cell-based; settings: gradient increasing dose, 24 h
[7] = system: PC-3; experiment: Cell viability (MTS) anti-proliferative assay, PC-3; assay type: cell-based; settings: PC-3 human prostate cancer, 48 h treatment, n = 4, read-out: IC50 values ± SEM, PC-3
Procedure: as §2

T1 sequence (O15392 whole entry): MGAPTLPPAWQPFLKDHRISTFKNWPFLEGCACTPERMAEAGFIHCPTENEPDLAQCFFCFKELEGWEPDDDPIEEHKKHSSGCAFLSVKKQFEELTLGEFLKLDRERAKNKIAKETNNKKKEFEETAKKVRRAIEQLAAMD

CCc1ccc(COCc2cc(CN3CCCC3)c(O)c3ncccc23)cc1 [4f, 5-(((4-ethylbenzyl)oxy)methyl)-7-(pyrrolidin-1-ylmethyl)quinolin-8-ol]
IC50 values for survivin inhibition ([1]; estimated from western blotting, A375 and PC-3 cells): low nanomolar range | Effect on survivin level, A375 ([1]; gradient increasing dose, 24 h, A375 cells): dose-dependently suppressed survivin level | IC50 [2]: 900 ± 100 nM | IC50 [3]: 900 ± 100 nM | Effect on levels of other IAPs [4]: minimally affected | IC50 ([5]; Homo sapiens, 48 h, multidrug-resistant M14/LCC6MDR1 melanoma, 48 h treatment, MTS, n = 4, read-out: IC50 values ± SEM, M14/LCC6MDR1): 2700 ± 1000 nM | Resistance Index ([5]; IC50 on M14/LCC6MDR1 divided by IC50 on parental M14): 3.0 | Effect on survivin level, PC-3 [6]: dose-dependently suppressed survivin level | IC50 [7]: 900 ± 100 nM
